Measurements published in patent US9695155B2, “Herbicidal substituted pyrimidinyloxy benzene compounds” (E. I. DU PONT DE NEMOURS AND COMPANY, priority 2013, dated 2017).

Key:
giant foxtail [1] = test: Test A postemergence; type: in vivo, Setaria faberii; settings: 0 to 100 scale where 0 is no effect and 100 is complete control
How it was run: (§1)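 Pre- and postemergence greenhouse screen. Soil: loam + sand. Spray carrier: solvent mixture, non-phytotoxic, with surfactant. Post timing at 1–2 leaves, height 2–10 cm. Readout: visual injury on a 0–100 scale roughly 10 days after application, untreated plants as reference.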

morningglory [2] = test: Test A postemergence; type: in vivo, Ipomoea spp.; settings: 0 to 100 scale where 0 is no effect and 100 is complete control
How it was run: as §1

velvetleaf [3] = test: Test A postemergence; type: in vivo, Abutilon theophrasti; settings: 0 to 100 scale where 0 is no effect and 100 is complete control
How it was run: as §1

Heteranthera limosa = test: Test B flooded paddy test; type: in vivo; settings: Flood, 250 g ai/ha; 0 to 100 scale where 0 is no effect and 100 is complete control
How it was run: (§2)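 2-leaf stage plants; pots flooded to 3 cm, compound added to paddy water, depth maintained. Greenhouse 13–15 d. Visual rating vs untreated controls, 0 (no effect) to 100 (complete control); dash = no result.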

barnyardgrass [4] = test: Test B flooded paddy test; type: in vivo, Echinochloa crus-galli; settings: Flood, 250 g ai/ha; 0 to 100 scale where 0 is no effect and 100 is complete control
How it was run: as §2

wheat [5] = test: Test A postemergence; type: in vivo, Triticum aestivum; settings: 0 to 100 scale where 0 is no effect and 100 is complete control
How it was run: as §1

giant foxtail [6] = test: Test A preemergence; type: in vivo, Setaria faberii; settings: for Plant response rating, Foxtail, Giant: 125 g ai/ha; for Foxtail, Giant plant response rating: 500 g ai/ha
How it was run: as §1

corn [7] = test: Test A postemergence; type: in vivo, Zea mays
How it was run: as §1

pigweed [8] = test: Test A preemergence; type: in vivo, Amaranthus retroflexus; settings: for Plant response rating, Pigweed: 125 g ai/ha; for Pigweed plant response rating: 500 g ai/ha
How it was run: as §1

large (Lg) crabgrass [9] = test: Test A preemergence; type: in vivo, Digitaria sanguinalis; settings: for Plant response rating, Crabgrass, Large: 125 g ai/ha; for Crabgrass, Large plant response rating: 500 g ai/ha
How it was run: as §1

barnyardgrass [10] = test: Test A postemergence; type: in vivo, Echinochloa crus-galli
How it was run: as §1

rice = test: Test B flooded paddy test; type: in vivo, Oryza sativa; settings: Flood, 250 g ai/ha; 0 to 100 scale where 0 is no effect and 100 is complete control
How it was run: as §2

morningglory [11] = test: Test A preemergence; type: in vivo, Ipomoea spp.; settings: for Plant response rating, Morningglory: 125 g ai/ha; for Morningglory plant response rating: 500 g ai/ha
How it was run: as §1

velvetleaf [12] = test: Test A preemergence; type: in vivo, Abutilon theophrasti; settings: for Plant response rating, Velvetleaf: 125 g ai/ha; for Velvetleaf plant response rating: 500 g ai/ha
How it was run: as §1

barnyardgrass [13] = test: Test A preemergence; type: in vivo, Echinochloa crus-galli; settings: for Plant response rating, Barnyardgrass: 125 g ai/ha; for Barnyardgrass plant response rating: 500 g ai/ha
How it was run: as §1

pigweed [14] = test: Test A postemergence; type: in vivo, Amaranthus retroflexus; settings: 0 to 100 scale where 0 is no effect and 100 is complete control
How it was run: as §1

corn [15] = test: Test A preemergence; type: in vivo, Zea mays; settings: for Plant response rating, Corn: 125 g ai/ha; for Corn plant response rating: 500 g ai/ha
How it was run: as §1

large (Lg) crabgrass [16] = test: Test A postemergence; type: in vivo, Digitaria sanguinalis
How it was run: as §1

sedge, umbrella = test: Test B flooded paddy test; type: in vivo, Cyperus difformis; settings: Flood, 250 g ai/ha; 0 to 100 scale where 0 is no effect and 100 is complete control
How it was run: as §2

wheat [17] = test: Test A preemergence; type: in vivo, Triticum aestivum; settings: for Plant response rating, Wheat: 125 g ai/ha; for Wheat plant response rating: 500 g ai/ha
How it was run: as §1

[18] = 0 to 100 scale where 0 is no effect and 100 is complete control
[19] = 0 to 100 scale, 0 no effect, 100 complete control, approx. 10 days
[20] = 125 g ai/ha, 0 to 100 scale where 0 is no effect and 100 is complete control
[21] = 500 g ai/ha, 0 to 100 scale, 0 no effect, 100 complete control
[22] = 500 g ai/ha, 0 to 100 scale where 0 is no effect and 100 is complete control

SMILES	Plant response rating, Foxtail, Giant (giant foxtail [1]; 125 g ai/ha)	Plant response rating, Foxtail, Giant (giant foxtail [1]; 500 g ai/ha)	Plant response rating, Morningglory (morningglory [2]; 125 g ai/ha)	Plant response rating, Morningglory (morningglory [2]; 500 g ai/ha)	Plant response rating, Velvetleaf (velvetleaf [3]; 125 g ai/ha)	Plant response rating, Velvetleaf (velvetleaf [3]; 500 g ai/ha)	Plant response rating, Ducksalad (Heteranthera limosa)	Plant response rating, Barnyardgrass (barnyardgrass [4])	Plant response rating, Wheat (wheat [5]; 500 g ai/ha)	Plant response rating, Foxtail, Giant (giant foxtail [6]; [18])	Plant response rating, Pigweed (pigweed [8]; [18])	Plant response rating, Crabgrass, Large (large (Lg) crabgrass [9]; [18])	Plant response rating, Rice (rice)	Plant response rating, Morningglory (morningglory [11]; [18])	Plant response rating, Velvetleaf (velvetleaf [12]; [18])	Plant response rating, Barnyardgrass (barnyardgrass [13]; [18])	Plant response rating, Pigweed (pigweed [14]; 500 g ai/ha)	Plant response rating, Corn (corn [15]; [18])	Plant response rating, Sedge, Umbrella (sedge, umbrella)	Plant response rating, Wheat (wheat [17]; [18])	other results
FC(F)(F)c1cccc(Oc2ncc(Cl)cn2)c1-n1cc(Br)cn1 [Compound 64]	80	100	60	80	100	100	70	0	30	90	90	90	0	0	40	60	100	0	80	0	Plant response rating, Wheat (wheat [5]; 125 g ai/ha): 0; Foxtail, Giant plant response rating (giant foxtail [6]; [19]): 90; Plant response rating, Corn (corn [7]; [20]): 30; Plant response rating, Corn (corn [7]; [21]): 90; Pigweed plant response rating (pigweed [8]; [19]): 100; Crabgrass, Large plant response rating (large (Lg) crabgrass [9]; [19]): 90; Plant response rating, Barnyardgrass (barnyardgrass [10]; [20]): 60; Plant response rating, Barnyardgrass (barnyardgrass [10]; [21]): 100; Morningglory plant response rating (morningglory [11]; [19]): 20; Velvetleaf plant response rating (velvetleaf [12]; [19]): 90; Barnyardgrass plant response rating (barnyardgrass [13]; [19]): 100; Plant response rating, Pigweed (pigweed [14]; 125 g ai/ha): 100; Corn plant response rating (corn [15]; [19]): 70; Plant response rating, Crabgrass, Large (large (Lg) crabgrass [16]; [20]): 80; Plant response rating, Crabgrass, Large (large (Lg) crabgrass [16]; [21]): 100; Wheat plant response rating (wheat [17]; [19]): 30
N#Cc1cccc(Oc2ncc(I)cn2)c1-n1cc(Cl)cn1 [Compound 75]	10	80	50	60	40	70	60	0	0	40	100	70	0	20	40	20	100	0	50	0	Plant response rating, Wheat (wheat [5]; 125 g ai/ha): 0; Foxtail, Giant plant response rating (giant foxtail [6]; [19]): 100; Plant response rating, Corn (corn [7]; [20]): 0; Plant response rating, Corn (corn [7]; [21]): 40; Pigweed plant response rating (pigweed [8]; [19]): 100; Crabgrass, Large plant response rating (large (Lg) crabgrass [9]; [19]): 100; Plant response rating, Barnyardgrass (barnyardgrass [10]; [20]): 30; Plant response rating, Barnyardgrass (barnyardgrass [10]; [21]): 70; Morningglory plant response rating (morningglory [11]; [19]): 30; Velvetleaf plant response rating (velvetleaf [12]; [19]): 80; Barnyardgrass plant response rating (barnyardgrass [13]; [19]): 70; Plant response rating, Pigweed (pigweed [14]; 125 g ai/ha): 70; Corn plant response rating (corn [15]; [19]): 10; Plant response rating, Crabgrass, Large (large (Lg) crabgrass [16]; [20]): 20; Plant response rating, Crabgrass, Large (large (Lg) crabgrass [16]; [21]): 70; Wheat plant response rating (wheat [17]; [19]): 0
O=Cc1cccc(Oc2ncc(F)cn2)c1-n1cc(Cl)cn1 [Compound 93]	0	0	0	0	0	0	0	0	0	0	0	0	0	0	0	0	0	0	0	0	Plant response rating, Wheat (wheat [5]; 125 g ai/ha): 0; Foxtail, Giant plant response rating (giant foxtail [6]; [19]): 0; Plant response rating, Corn (corn [7]; [20]): 0; Plant response rating, Corn (corn [7]; [22]): 0; Pigweed plant response rating (pigweed [8]; [19]): 30; Crabgrass, Large plant response rating (large (Lg) crabgrass [9]; [19]): 30; Plant response rating, Barnyardgrass (barnyardgrass [10]; [20]): 0; Plant response rating, Barnyardgrass (barnyardgrass [10]; [22]): 0; Morningglory plant response rating (morningglory [11]; [19]): 0; Barnyardgrass plant response rating (barnyardgrass [13]; [19]): 0; Plant response rating, Pigweed (pigweed [14]; 125 g ai/ha): 0; Corn plant response rating (corn [15]; [19]): 0; Plant response rating, Crabgrass, Large (large (Lg) crabgrass [16]; [20]): 0; Plant response rating, Crabgrass, Large (large (Lg) crabgrass [16]; [22]): 0
CC(=O)c1cccc(Oc2ncc(Cl)cn2)c1-n1cc(Br)cn1 [Compound 96]	0	20	0	10	0	10	0	0	0	10	50	30	0	0	0	0	40	0	0	0	Plant response rating, Wheat (wheat [5]; 125 g ai/ha): 0; Foxtail, Giant plant response rating (giant foxtail [6]; [19]): 60; Plant response rating, Corn (corn [7]; [20]): 0; Plant response rating, Corn (corn [7]; [22]): 10; Pigweed plant response rating (pigweed [8]; [19]): 100; Crabgrass, Large plant response rating (large (Lg) crabgrass [9]; [19]): 90; Plant response rating, Barnyardgrass (barnyardgrass [10]; [20]): 10; Plant response rating, Barnyardgrass (barnyardgrass [10]; [22]): 30; Morningglory plant response rating (morningglory [11]; [19]): 0; Barnyardgrass plant response rating (barnyardgrass [13]; [19]): 30; Plant response rating, Pigweed (pigweed [14]; 125 g ai/ha): 10; Corn plant response rating (corn [15]; [19]): 0; Plant response rating, Crabgrass, Large (large (Lg) crabgrass [16]; [20]): 10; Plant response rating, Crabgrass, Large (large (Lg) crabgrass [16]; [22]): 30
O=Cc1cccc(Oc2ncc(Br)cn2)c1-n1cc(C(F)(F)F)cn1 [Compound 161]	–	0	–	0	–	20	0	0	0	0	90	0	0	0	10	0	80	0	0	0	Foxtail, Giant plant response rating (giant foxtail [1]; 125 g ai/ha): 0; Morningglory plant response rating (morningglory [2]; 125 g ai/ha): 0; Velvetleaf plant response rating (velvetleaf [3]; 125 g ai/ha): 10; Wheat plant response rating (wheat [5]; 125 g ai/ha): 0; Foxtail, Giant plant response rating (giant foxtail [6]; [18]): 0; Corn plant response rating (corn [7]; [20]): 0; Plant response rating, Corn (corn [7]; [22]): 0; Pigweed plant response rating (pigweed [8]; [18]): 100; Crabgrass, Large plant response rating (large (Lg) crabgrass [9]; [18]): 0; Barnyardgrass plant response rating (barnyardgrass [10]; [20]): 0; Plant response rating, Barnyardgrass (barnyardgrass [10]; [22]): 0; Morningglory plant response rating (morningglory [11]; [18]): 0; Velvetleaf plant response rating (velvetleaf [12]; [18]): 20; Barnyardgrass plant response rating (barnyardgrass [13]; [18]): 10; Pigweed plant response rating (pigweed [14]; 125 g ai/ha): 50; Corn plant response rating (corn [15]; [18]): 0; Crabgrass, Large plant response rating (large (Lg) crabgrass [16]; [20]): 0; Plant response rating, Crabgrass, Large (large (Lg) crabgrass [16]; [22]): 0; Wheat plant response rating (wheat [17]; [18]): 0
